Data set [1] deals with T1, recombinant full-length WRN protein (1-1432) (Homo sapiens, UniProt Q14191).
T1 construct: recombinant full-length WRN protein (1-1432)
In words: WRN unwinding activity, fluorogenic 384-well assay (Example A). The note with it: WRN unwinding activity, 4 hr; Table 2; read-out: 4 hr UNW pIC50 (converted). The format is biochemical. Summed up: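 200 pM enzyme (2× stock) preincubated with compound 4 h at ambient temperature, then 200 μM ATP and 12 nM quenched TAMRA-labelled dsDNA (2× stocks) added for 60 min; EDTA-quenched. Buffer 25 mM Tris pH 8.0, 5 mM NaCl, 2 mM MgCl2. Fluorescence at 525/598 nm; pIC50 from four-parameter fit.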

The nature of data set [2]: Cell culture media unbound percentage and stability by rapid equilibrium dialysis (Example C). The format is in vitro ADME. The settings on record: bovine, cell assay medium (RPMI-1640 with 10% fetal bovine serum), pH 7.4, rapid equilibrium dialysis, 4 hours at 37° C., read-out: Cell Culture Media Binding (% unbound). Summed up:
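Compound spiked into cell culture medium at nominal 1 μM and dialysed against PBS (100 mM sodium phosphate + 150 mM NaCl, pH 7.4) by rapid equilibrium dialysis, triplicate, 4 h at 37° C with shaking. LC-MS/MS peak area ratios gave percent unbound (receiver/donor) and percent stability (240 min vs 0 min).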

Data set [3] concerns SW48 human colorectal cancer cells. The data set is described as follows: Calculated free drug potency in SW48 cell assay, corrected with media free fraction (Example C). The class given is cell-based. The settings on record: Homo sapiens, SW48, SW48 pCC50 corrected with measured free fraction in cell assay media. The method in brief:
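Compound spiked at nominal 1 μM into cell assay medium and dialysed against PBS (100 mM sodium phosphate, 150 mM NaCl, pH 7.4) by rapid equilibrium dialysis, 4 h, 37 °C, shaking. Percent unbound from LC-MS/MS peak area ratios (240 min vs 0 min); cell assay concentrations corrected by this free fraction.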

The subject of data set [4] is SW48 human colorectal cancer cells (MSI-H cancer cells). In words: SW48 cell viability, CellTiter-Glo, 120 hours (Example B). The settings on record: Homo sapiens. For orientation: In ATP-based viability assays light output follows the ATP content of the culture.
Setting [5] is: SW48, 120 h, read-out: SW48 pCC50, SW48 cell viability, 120 hours incubation (converted), Table 2.
[6] abbreviates: SW48, read-out: SW48 pCC50, measured potency from Example B, as repeated in Table 3 (converted).

Each structure is given as a SMILES string. Where a name gives a salt, the structure may show the parent alone. Read-outs that look alike come from different tables or passages of the source.

T1 sequence (Q14191 whole entry): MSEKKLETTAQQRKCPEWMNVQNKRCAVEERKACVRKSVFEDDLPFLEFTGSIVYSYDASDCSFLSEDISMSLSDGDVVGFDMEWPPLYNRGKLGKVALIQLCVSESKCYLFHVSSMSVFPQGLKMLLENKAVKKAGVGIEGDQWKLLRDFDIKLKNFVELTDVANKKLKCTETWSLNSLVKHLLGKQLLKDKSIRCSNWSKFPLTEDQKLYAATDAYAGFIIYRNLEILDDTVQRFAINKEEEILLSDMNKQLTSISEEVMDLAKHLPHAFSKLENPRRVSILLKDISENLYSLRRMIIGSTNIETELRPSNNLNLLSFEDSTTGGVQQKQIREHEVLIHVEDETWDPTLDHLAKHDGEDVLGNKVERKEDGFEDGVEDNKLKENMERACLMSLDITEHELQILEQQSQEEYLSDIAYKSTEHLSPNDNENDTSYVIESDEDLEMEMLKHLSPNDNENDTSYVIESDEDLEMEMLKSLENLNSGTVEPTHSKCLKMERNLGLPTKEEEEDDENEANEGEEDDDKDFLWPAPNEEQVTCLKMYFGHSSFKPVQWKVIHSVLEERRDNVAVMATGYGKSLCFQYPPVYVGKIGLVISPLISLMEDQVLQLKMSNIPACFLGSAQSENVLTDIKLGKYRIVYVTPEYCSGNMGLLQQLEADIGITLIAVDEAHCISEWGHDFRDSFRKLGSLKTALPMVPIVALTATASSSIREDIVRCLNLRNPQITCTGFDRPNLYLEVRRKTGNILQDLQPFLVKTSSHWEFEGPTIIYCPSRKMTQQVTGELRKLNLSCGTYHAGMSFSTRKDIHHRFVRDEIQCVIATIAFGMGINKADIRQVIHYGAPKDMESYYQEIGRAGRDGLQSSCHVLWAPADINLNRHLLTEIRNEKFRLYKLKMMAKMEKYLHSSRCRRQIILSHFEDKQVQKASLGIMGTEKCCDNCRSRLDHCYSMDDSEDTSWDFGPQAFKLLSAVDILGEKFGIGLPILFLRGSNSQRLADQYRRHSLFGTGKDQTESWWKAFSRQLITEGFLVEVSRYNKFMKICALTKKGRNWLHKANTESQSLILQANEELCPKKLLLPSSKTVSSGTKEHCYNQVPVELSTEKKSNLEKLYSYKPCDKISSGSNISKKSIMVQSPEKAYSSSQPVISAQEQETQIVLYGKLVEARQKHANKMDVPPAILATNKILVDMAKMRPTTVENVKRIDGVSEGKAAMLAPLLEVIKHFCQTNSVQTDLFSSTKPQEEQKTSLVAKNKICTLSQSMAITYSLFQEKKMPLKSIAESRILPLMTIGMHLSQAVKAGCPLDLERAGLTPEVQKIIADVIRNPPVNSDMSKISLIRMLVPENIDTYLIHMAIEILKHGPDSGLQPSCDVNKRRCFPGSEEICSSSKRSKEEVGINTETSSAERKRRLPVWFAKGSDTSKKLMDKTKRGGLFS

Turning to `Cc1nc2cc(S(=O)(=O)N(C)c3ccc([C@H]4CCC[C@@H](COc5ccc(C(F)(F)F)cc5O)[C@@H]4C(=O)O)cc3)ccc2n1C` [Example 206, (1R,2R,6S)-2-((2-hydroxy-4-(trifluoromethyl)phenoxy)methyl)-6-(4-((N,1,2-trimethyl-1H-benzo[d]imidazole)-5-sulfonamido)phenyl)cyclohexane-1-carboxylic acid], the IC50 in data set [1] is 15.8 nM. For the same molecule, in data set [2], the fraction unbound at 4 h, 1 µM was 0.0032. Moreover, the CC50 in data set [3] was 12.9 nM; in data set [4] (setting [5]), 3980 nM; in data set [4] (setting [6]), 3980 nM.

In the case of `Cc1nc2cc(S(=O)(=O)N(C)c3ccc([C@H]4CCC[C@@H](COc5ccc(C(F)(F)F)cc5)[C@@H]4C(=O)O)cc3)ccc2n1CCN(C)C` [Example 219, (1R,2S,6R)-2-(4-((1-(2-(dimethylamino)ethyl)-N,2-dimethyl-1H-benzo[d]imidazole)-5-sulfonamido)phenyl)-6-((4-(trifluoromethyl)phenoxy)methyl)cyclohexane-1-carboxylic acid], the IC50 in data set [1] was 5.01 nM. Further, the fraction unbound at 4 h, 1 µM in data set [2] is 0.0031. For the same molecule, the CC50 is 19.5 nM in data set [3], 6310 nM in data set [4] (setting [5]) and 6310 nM in data set [4] (setting [6]).

Consider `CN(c1ccc([C@H]2CCC[C@@H](C(=O)Nc3ccc(C(F)(F)F)cc3F)[C@@H]2C(=O)O)cc1)S(=O)(=O)c1cccc(C2CCNCC2)c1` [Example 261, (1R,2R,6S)-2-((2-fluoro-4-(trifluoromethyl)phenyl)carbamoyl)-6-(4-((N-methyl-3-(piperidin-4-yl)phenyl)sulfonamido)phenyl)cyclohexane-1-carboxylic acid], for which the IC50 in data set [1] was 1.58 nM. In addition, the fraction unbound at 4 h, 1 µM in data set [2] came to 0.311. Besides, the CC50 in data set [3] is 309 nM; in data set [4] (setting [5]), 1000 nM; in data set [4] (setting [6]), 1000 nM.

In the case of `CN(c1ccc([C@H]2CCC[C@@H](C(=O)Nc3ccc(C(F)(F)F)cc3F)[C@@H]2C(=O)O)cc1)S(=O)(=O)c1cccc([C@@H]2CCCNC2)c1` [Example 262, (1R,2R,6S)-2-((2-fluoro-4-(trifluoromethyl)phenyl)carbamoyl)-6-(4-((N-methyl-3-((S)-piperidin-3-yl)phenyl)sulfonamido)phenyl)cyclohexane-1-carboxylic acid], the IC50 in data set [1] was 1.58 nM. Besides, the fraction unbound at 4 h, 1 µM in data set [2] worked out at 0.241. Besides, the CC50 was 240 nM in data set [3], 1000 nM in data set [4] (setting [5]) and 1000 nM in data set [4] (setting [6]).

Regarding `CN(c1ccc([C@H]2CCC[C@@H](C(=O)Nc3ccc(C(F)(F)F)cc3F)[C@@H]2C(=O)O)cc1)S(=O)(=O)c1cccc([C@H]2CCCNC2)c1` [Example 263], in data set [1], the IC50 was 1.58 nM. For the same molecule, the fraction unbound at 4 h, 1 µM in data set [2] turned out to be 0.278. Moreover, the CC50 in data set [3] is 55 nM; in data set [4] (setting [5]), 200 nM; in data set [4] (setting [6]) it was 200 nM.

For the molecule `CN1CCN(c2cc(S(=O)(=O)N(C)c3ccc([C@H]4CCC[C@@H](C(=O)Nc5ccc(C(F)(F)F)cc5F)[C@@H]4C(=O)O)cc3)cc3ccoc23)CC1` [Example 265, (1R,2R,6S)-2-((2-fluoro-4-(trifluoromethyl)phenyl)carbamoyl)-6-(4-((N-methyl-7-(4-methylpiperazin-1-yl)benzofuran)-5-sulfonamido)phenyl)cyclohexane-1-carboxylic acid], the IC50 in data set [1] was 6.31 nM. For the same molecule, in data set [2], the fraction unbound at 4 h, 1 µM amounted to 0.115. Further, the CC50 was 91.2 nM in data set [3], 794 nM in data set [4] (setting [5]) and 794 nM in data set [4] (setting [6]).

On to `CN(c1ccc([C@H]2CCC[C@@H](C(=O)Nc3ccc(C(F)(F)F)cc3F)[C@@H]2C(=O)O)cc1)S(=O)(=O)c1ccc2c(c1)nc(N)n2C` [Example 266, (1R,2S,6R)-2-(4-((2-amino-N,1-dimethyl-1H-benzo[d]imidazole)-5-sulfonamido)phenyl)-6-((2-fluoro-4-(trifluoromethyl)phenyl)carbamoyl)cyclohexane-1-carboxylic acid], for which, in data set [1], the IC50 was 1.26 nM. In data set [2], the fraction unbound at 4 h, 1 µM was 0.141. Further, the CC50 was 56.2 nM in data set [3], 398 nM in data set [4] (setting [5]) and 398 nM in data set [4] (setting [6]).

As for `CN(c1ccc([C@H]2CCC[C@@H](C(=O)Nc3ccc(C(F)(F)F)cc3F)[C@@H]2C(=O)O)cc1)S(=O)(=O)c1ccc2c(c1)nc(CCN)n2C` [Example 267, (1R,2S,6R)-2-(4-((2-(2-aminoethyl)-N,1-dimethyl-1H-benzo[d]imidazole)-5-sulfonamido)phenyl)-6-((2-fluoro-4-(trifluoromethyl)phenyl)carbamoyl)cyclohexane-1-carboxylic acid hydrochloride], the IC50 in data set [1] was 1 nM. Moreover, the fraction unbound at 4 h, 1 µM in data set [2] came to 0.226. Also, the CC50 is 178 nM in data set [3], 794 nM in data set [4] (setting [5]) and 794 nM in data set [4] (setting [6]).

In the case of `CN(C)CCc1nc2cc(S(=O)(=O)N(C)c3ccc([C@H]4CCC[C@@H](C(=O)Nc5ccc(C(F)(F)F)cc5F)[C@@H]4C(=O)O)cc3)ccc2n1C` [Example 272, (1R,2S,6R)-2-(4-((2-(2-(dimethylamino)ethyl)-N,1-dimethyl-1H-benzo[d]imidazole)-5-sulfonamido)phenyl)-6-((2-fluoro-4-(trifluoromethyl)phenyl)carbamoyl)cyclohexane-1-carboxylic acid], the IC50 in data set [1] is 1.58 nM. For the same molecule, the fraction unbound at 4 h, 1 µM in data set [2] worked out at 0.236. Further, the CC50 in data set [3] was 37.2 nM; in data set [4] (setting [5]) it was 158 nM; in data set [4] (setting [6]) it was 158 nM.

On to `CN(c1ccc([C@H]2CCC[C@@H](COc3ccc(C(F)(F)F)cc3)[C@@H]2C(=O)O)cc1)S(=O)(=O)c1ccc2c(c1)nc(CCN)n2C` [Example 273], for which the IC50 in data set [1] was 5.01 nM. Further, the fraction unbound at 4 h, 1 µM in data set [2] stood at 0.0082. In addition, the CC50 in data set [3] is 64.6 nM; in data set [4] (setting [5]), 7940 nM; in data set [4] (setting [6]) it was 7940 nM.

Turning to `CN(C)CCc1nc2cc(S(=O)(=O)N(C)c3ccc([C@H]4CCC[C@@H](COc5ccc(C(F)(F)F)cc5)[C@@H]4C(=O)O)cc3)ccc2n1C` [Example 275], the IC50 in data set [1] is 2 nM. The fraction unbound at 4 h, 1 µM in data set [2] stood at 0.0083. Further, the CC50 in data set [3] is 41.7 nM; in data set [4] (setting [5]) it was 5010 nM; in data set [4] (setting [6]) it was 5010 nM.

For `Cc1nc2cc(S(=O)(=O)N(C)c3ccc([C@H]4CCC[C@@H](C(=O)Nc5ccc(C(F)(F)F)cc5F)[C@@H]4C(=O)O)cc3)ccc2n1CCN` [Example 277, (1R,2S,6R)-2-(4-((1-(2-aminoethyl)-N,2-dimethyl-1H-benzo[d]imidazole)-5-sulfonamido)phenyl)-6-((2-fluoro-4-(trifluoromethyl)phenyl)carbamoyl)cyclohexane-1-carboxylic acid], in data set [1], the IC50 was 0.631 nM. In data set [2], the fraction unbound at 4 h, 1 µM worked out at 0.197. In addition, the CC50 in data set [3] was 309 nM; in data set [4] (setting [5]), 1580 nM; in data set [4] (setting [6]) it was 1580 nM.

As for `Cc1nc2cc(S(=O)(=O)N(C)c3ccc([C@H]4CCC[C@@H](C(=O)Nc5ccc(C(F)(F)F)cc5F)[C@@H]4C(=O)O)cc3)ccc2n1CCN(C)C` [Example 278, (1R,2S,6R)-2-(4-((1-(2-(dimethylamino)ethyl)-N,2-dimethyl-1H-benzo[d]imidazole)-5-sulfonamido)phenyl)-6-((2-fluoro-4-(trifluoromethyl)phenyl)carbamoyl)cyclohexane-1-carboxylic acid], the IC50 in data set [1] is 0.631 nM. For the same molecule, the fraction unbound at 4 h, 1 µM in data set [2] was found to be 0.208. Also, the CC50 in data set [3] is 26.3 nM; in data set [4] (setting [5]), 126 nM; in data set [4] (setting [6]) it was 126 nM.

For the molecule `CCO[C@@H]1C[C@H](c2ccc(N(C)S(=O)(=O)c3ccc4c(c3)nc3n4CCCC3)cc2)[C@@H](C(=O)O)[C@H](C(=O)Nc2ccc(C(F)(F)F)cc2F)C1` [Example 279, (1R,2R,4R,6S)-4-ethoxy-2-((2-fluoro-4-(trifluoromethyl)phenyl)carbamoyl)-6-(4-((N-methyl-1,2,3,4-tetrahydrobenzo[4,5]imidazo[1,2-a]pyridine)-7-sulfonamido)phenyl)cyclohexane-1-carboxylic acid], the IC50 in data set [1] was 2 nM. Also, in data set [2], the fraction unbound at 4 h, 1 µM turned out to be 0.079. Further, the figures for the CC50 in data set [3], in data set [4] (setting [5]) and in data set [4] (setting [6]) were 10 nM, 126 nM and 126 nM, respectively.

For the molecule `CCO[C@@H]1C[C@H](c2ccc(N(C)S(=O)(=O)c3ccc4[nH]c(C)nc4c3)cc2)[C@@H](C(=O)O)[C@H](C(=O)Nc2ccc(C(F)(F)F)cc2F)C1` [Example 281, (1R,2S,4R,6R)-2-(4-((N,2-dimethyl-1H-benzo[d]imidazole)-5-sulfonamido)phenyl)-4-ethoxy-6-((2-fluoro-4-(trifluoromethyl)phenyl)carbamoyl)cyclohexane-1-carboxylic acid], in data set [1], the IC50 was 1.58 nM. Besides, the fraction unbound at 4 h, 1 µM in data set [2] amounted to 0.148. In addition, the results for the CC50 in data set [3], in data set [4] (setting [5]) and in data set [4] (setting [6]) were 117 nM, 794 nM and 794 nM, respectively.

(Values after patent US12662451B2, “Chemical compounds and uses thereof” (GLAXOSMITHKLINE INTELLECTUAL PROPERTY (NO.4) LIMITED, priority 2023, dated 2026).)
